Molecular target: BTK (Homo sapiens, UniProt Q06187)
Assay: biochemical
Details: read-out: BTK inhibition (%)

Sequence of BTK (Q06187 402-655 limits assumed): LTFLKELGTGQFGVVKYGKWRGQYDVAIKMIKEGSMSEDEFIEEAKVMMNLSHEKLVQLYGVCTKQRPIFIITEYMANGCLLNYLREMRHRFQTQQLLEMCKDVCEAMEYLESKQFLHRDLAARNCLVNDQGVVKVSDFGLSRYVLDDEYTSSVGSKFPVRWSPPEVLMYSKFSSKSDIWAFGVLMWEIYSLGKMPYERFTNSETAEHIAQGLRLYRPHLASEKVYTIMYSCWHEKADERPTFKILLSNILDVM

SMILES	inhibition at 10 µM [%]
C=CCCCCCCCCC(=O)O[C@H]1CC[C@H]2[C@@H]3CCC4=CC(=O)C=C[C@]4(C)[C@H]3CC[C@]12C [PCM-0215894]	10.9

Same assay, conditions: read-out: BTK inhibition (%), 0.75 uM BTK, […] probe 3l, 15 min preincubation

SMILES	inhibition at 10 µM [%]
C=CC(=O)Nc1ccc2ncnc(Nc3ccc(OCc4cccc(F)c4)c(Cl)c3)c2c1 [PCM-0095229]	110
CC(=O)c1cc2c(o1)C(=O)c1ccccc1C2=O [PCM-0215544]	-0.8
CC(=O)O[C@H]1C[C@@]2(C)[C@@H](C[C@@H](O)[C@H]3[C@@]4(C)CC[C@@H](O)[C@@H](C)[C@@H]4CC[C@@]32C)/C1=C(\CCC=C(C)C)C(=O)O [PCM-0214838]	6.2
COCCOc1cnc2ccn([C@H](C)c3nnc4c(F)cc(-c5cnn(C)c5)cn34)c(=O)c2c1 [PCM-0215653]	15.9
Cn1cc(-c2ccc3ncc(Cc4ccc5ncccc5c4)n3n2)cn1 [PCM-0095521]	-16.6
C[C@@H]1CC[C@@]2(OC1)O[C@H]1C[C@H]3[C@@H]4CC=C5C[C@@H](O[C@@H]6O[C@H](CO)[C@@H](O)[C@H](O)[C@H]6O)CC[C@]5(C)[C@H]4CC[C@]3(C)[C@H]1[C@@H]2C [PCM-0216366]	-20.1
Cc1cc(C(C)Nc2ccccc2)c2nc(N3CCOCC3)cc(=O)n2c1 (centres unmarked) [PCM-0095022]	10.3
CC(O)[C@H](C)[C@H](N)C(=O)O (some centres unmarked) [PCM-0216361]	-2.6
CCOc1cc2ncc(C#N)c(Nc3ccc(F)c(Cl)c3)c2cc1NC(=O)/C=C/CN(C)C [PCM-0095063]	96.6
C=CC(=O)N1CCN(C(=O)CNc2cc(I)c(Cl)cc2O)CC1 [PCM-0215367]	84.9
O=c1c2cc(O[C@@H]3O[C@H](CO)[C@@H](O)[C@H](O)[C@H]3O)c(O)cc2oc2cc(O)c([C@@H]3O[C@H](CO)[C@@H](O)[C@H](O)[C@H]3O)c(O)c12 [PCM-0214972]	-3.1
Cc1nc(-c2cn3c(n2)-c2ccc(-c4cnn(C(C)(C)C(N)=O)c4)cc2OCC3)n(C(C)C)n1 [PCM-0215518]	0
CC(C)=CCC[C@](C)(O[C@@H]1O[C@H](CO)[C@@H](O)[C@H](O)[C@H]1O)[C@H]1CC[C@]2(C)[C@@H]1[C@H](O)C[C@@H]1[C@@]3(C)CC[C@H](O[C@@H]4O[C@H](CO)[C@@H](O)[C@H](O)[C@H]4O[C@@H]4O[C@H](CO)[C@@H](O)[C@H](O)[C@H]4O)C(C)(C)[C@@H]3CC[C@]12C [PCM-0215020]	21
c1ccc(CNc2nc(NCc3ccccc3)c3ccccc3n2)cc1 [PCM-0215216]	10.8
COCC1=C(C(=O)OC(C)OC(=O)OC(C)C)N2C(=O)[C@@H](NC(=O)/C(=N\OC)c3csc(N)n3)[C@H]2SC1 (some centres unmarked) [PCM-0216141]	-11.6
CCCc1ccc(OCC(=O)N(Cc2nc(-c3cccnc3)no2)C(C)C)cc1 [PCM-0215326]	-16.2
C[C@]12CC[C@@H]3c4ccc(O)cc4CC[C@H]3[C@@H]1C[C@@H](O)[C@@H]2O [PCM-0086283]	5.4
CO/N=C1\C[C@]2(C[C@@H]3C[C@@H](C/C=C(\C)C[C@@H](C)/C=C/C=C4\CO[C@@H]5[C@H](O)C(C)=C[C@@H](C(=O)O3)[C@]45O)O2)O[C@H](/C(C)=C/C(C)C)[C@H]1C [PCM-0214892]	16.3
CC(C)(C)C[C@@H]1N[C@@H](C(=O)NC2CCC(O)CC2)[C@H](c2cccc(Cl)c2F)[C@]12C(=O)Nc1cc(Cl)ccc12 (some centres unmarked) [PCM-0215450]	21.6
CCc1c(C(=O)C(N)=O)c2c(OCC(=O)O)cccc2n1Cc1ccccc1 [PCM-0094894]	-16.3
Cn1cc(-c2cnn3c(N)c(Br)c([C@@H]4CCCNC4)nc23)cn1 [PCM-0095786]	-6.8
NC(=O)c1noc([C@H](CCCC2CCCCC2)CC(=O)NO)n1 [PCM-0095693]	10.1
CC[C@H]1OC(=O)[C@H](C)[C@@H](O[C@H]2C[C@@](C)(OC)[C@@H](O)[C@H](C)O2)[C@H](C)[C@@H](O[C@@H]2O[C@H](C)C[C@H](N(C)C)[C@H]2O)[C@](C)(O)C[C@@H](C)C(=O)[C@H](C)[C@@H](O)[C@]1(C)O [PCM-0216070]	10

SMILES	inhibition at 10 µM [%]
C/C=C(/C)C(=O)O [PCM-0215002]	14.5
C[C@@H](c1ncncc1F)[C@](O)(Cn1cncn1)c1ccc(F)cc1F [PCM-0214624]	2.3
Cc1ccc(Nc2c(F)cccc2Cl)c(CC(=O)O)c1 [PCM-0090280]	6.9
CNC(=O)c1ccc(C)c(-n2c(C)cc(OCc3ccc(F)cc3F)c(Br)c2=O)c1 [PCM-0095443]	-14.5
CNC(=C[N+](=O)[O-])NCCSCc1csc(CN(C)C)n1 [PCM-0086495]	2.1
C[C@]12CCC(=O)C=C1CC[C@@H]1[C@@H]2[C@@H](O)C[C@@]2(C)[C@H]1CC[C@]2(O)C(=O)CO [PCM-0214647]	12.4
C[C@]12CC[C@H](O)CC1=CC[C@@H]1[C@@H]2CC[C@]2(C)C(=O)CC[C@@H]12 [PCM-0214686]	-24.9
COc1cc(/C=C/C(=O)CC(=O)/C=C/c2ccc(O)cc2)ccc1O [PCM-0216521]	110
O=C(O)CNC(=O)c1nc(Cl)c2ccccc2c1O [PCM-0215583]	10.8
Cc1[nH]nc(C(F)(F)F)c1Cc1sc2c(c1C(=O)N1C[C@](C)(O)CO1)c(=O)n(C)c(=O)n2C(C)C [PCM-0215606]	6.9
Fc1ccc(Cn2c(Cl)nc3ccccc32)cc1 [PCM-0216108]	-52.5
Nc1ncnc2c1ncn2[C@@H]1O[C@H](CO)[C@@H](O)[C@H]1O [PCM-0090045]	14
CC(C)=CCC[C@](C)(O)[C@H]1CC[C@]2(C)[C@@H]1[C@H](O)C[C@@H]1[C@@]3(C)CC[C@H](O)C(C)(C)[C@@H]3CC[C@]12C [PCM-0214857]	21
CCCc1nc(C(C)(C)O)c(C(=O)OCc2oc(=O)oc2C)n1Cc1ccc(-c2ccccc2-c2nn[nH]n2)cc1 [PCM-0086318]	0.8
CC1(C)O[C@H]1COc1c2ccoc2cc2oc(=O)ccc12 [PCM-0216499]	0.8
O=C(Nc1ccc(OC(F)(F)F)cc1)c1sccc1NCc1ccnc2ccccc12 [PCM-0094951]	90.3
CCNC(=O)C[C@@H]1N=C(c2ccc(Cl)cc2)c2cc(OC)ccc2-n2c(C)nnc21 [PCM-0215230]	-20.8
OC1OC[C@@H](O)[C@@H](O)[C@@H]1O (some centres unmarked) [PCM-0215980]	10.8
CN(C)CCC=C1c2ccccc2C(C)(C)c2ccccc21 [PCM-0216044]	-10.8
Cc1c(NC(=O)OC[C@@H]2COCCN2)cn2ncnc(Nc3ccc4c(cnn4Cc4cccc(F)c4)c3)c12 [PCM-0094984]	32.4
CC1(C)CC[C@]2(C(=O)O[C@@H]3O[C@H](CO)[C@@H](O)[C@H](O)[C@H]3O)CC[C@]3(C)C(=CC[C@@H]4[C@@]5(C)CC[C@H](O[C@@H]6O[C@H](C(=O)O)[C@@H](O)[C@H](O)[C@H]6O[C@@H]6O[C@H](CO)[C@@H](O)[C@H](O)[C@H]6O)C(C)(C)[C@@H]5CC[C@]43C)[C@@H]2C1 [PCM-0216395]	4.6
COc1cc(Nc2nc3ccccc3nc2NS(=O)(=O)c2ccc(NC(=O)c3ccc(C)c(OC)c3)cc2)cc(OC)c1 [PCM-0095193]	-17.9
COc1ccc2[nH]cc(/C=C3\C(=O)Nc4ccc(NC(=O)CCN5CCCCC5)cc43)c2c1 [PCM-0216653]	51.7

SMILES	inhibition at 10 µM [%]
CCCC(=O)Nc1cccc(NC(=O)c2ccccc2Br)c1 [PCM-0095401]	19.5
O=C(Cn1ccnc1[N+](=O)[O-])NCc1ccccc1 [PCM-0214934]	3.1
O=C1c2c(O)cc(O)cc2O[C@H](c2cc(O)c(O)c(O)c2)[C@H]1O [PCM-0094847]	-9
CC(C)(C)NCC(O)c1cc(O)cc(O)c1 (centres unmarked) [PCM-0064743]	-26.4
Cc1ccc(-c2n[nH]c3c2C(c2cccc(O)c2)N(c2ccc(C(=O)O)cc2)C3=O)cc1 (centres unmarked) [PCM-0216247]	41.7
C/C(=N\NC(=S)N1CCC1)c1ccccn1 [PCM-0095797]	-13.9
O=c1c(O)c(-c2ccc(O)cc2O)oc2cc(O)cc(O)c12 [PCM-0065541]	10.1
O=C1CCc2cc(OCCCCc3nnnn3C3CCCCC3)ccc2N1 [PCM-0064629]	-19.5
CC(=O)OC(C)C(C)C(=O)OC[C@@]12[C@H]3C[C@]4(C)C(=CC[C@@H]5[C@@]6(C)CC[C@H](O[C@@H]7O[C@H](C(=O)O)[C@@H](O[C@@H]8O[C@H](CO)[C@@H](O)[C@H](O)[C@H]8O)[C@H](O)[C@H]7O[C@@H]7OC[C@@H](O)[C@H](O)[C@H]7O)[C@@](C)(CO)[C@@H]6CC[C@]54C)[C@@H]1CC(C)(C)[C@H](O3)[C@@H]2O (some centres unmarked) [PCM-0215924]	5.1
C=C[C@@H]1C[C@]1(NC(=O)[C@@H]1C[C@@H](Oc2ncc(OC)c3ccc(Cl)cc23)CN1C(=O)[C@@H](NC(=O)OC(C)(C)C)C(C)(C)C)C(=O)NS(=O)(=O)C1CC1 [PCM-0215095]	-4.7
C[C@H](NC(=O)c1c(N)nn2cccnc12)c1cc2cccc(C#Cc3cnn(C)c3)c2c(=O)n1-c1ccccc1 [PCM-0215846]	20
C[C@H](N[C@@H](CCc1ccccc1)C(=O)O)C(=O)N1CCC[C@H]1C(=O)O [PCM-0065638]	3.1
O=C(Nc1cccc(Cl)c1)c1ccccn1 [PCM-0095506]	5.4
CCCCCCCCCCCCCC(=O)O [PCM-0216589]	1.7
C1=C2CCCN[C@H]2[C@@H]2C[C@H]1[C@H]1CCCCN1C2 [PCM-0095306]	-2.6
COc1ccc(COc2ccc(Cc3cnc(N)nc3N)cc2OC)cc1 [PCM-0095630]	-7.6
CCOC(=O)C1=C(C)NC(=S)NC1c1cccc(O)c1 (centres unmarked) [PCM-0215759]	-25.5
CC(C)(O)CNc1ncc(-c2ccnc(Nc3ccnc(Cl)c3)n2)c(CC2CC2)n1 [PCM-0215614]	-14.5
Nc1nnc(-c2cccc(Cl)c2Cl)c(N)n1 [PCM-0065504]	16.3
O=c1ncn2nc(Sc3ccc(F)cc3F)ccc2c1-c1c(Cl)cccc1Cl [PCM-0214781]	40
O=C1C[C@@H]2[C@@H](CO)[C@H](O)C[C@@H]2O1 [PCM-0216100]	-8.5
